Experimental data: US20260327214A1, “1,3,4-OXADIAZOLE DERIVATIVE COMPOUNDS AS HISTONE DEACETYLASE 6 INHIBITOR, AND USES THEREOF” (CHONG KUN DANG PHARMACEUTICAL CORP., priority 2022, published 2026)

What was measured:
human recombinant HDAC1 = biological target: T1, human recombinant HDAC1 (Homo sapiens, UniProt Q13547); assay: HDAC1 enzyme activity inhibition test (HDAC Fluorometric Drug Discovery Kit); type: biochemical; details: 30° C., 60 minutes, 10 μM substrate
T1 construct: purchased Enzo Life Science BML-SE456
Procedure, shortened: (§1)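 IC50 derived from fluorescence (Ex 360, Em 460) following 30 min development with Developer II. Each reaction held 0.3 μg human recombinant HDAC1 or HDAC6, 10 μM Fluor de Lys SIRT1 substrate and 5-fold serially diluted compound, incubated 60 min at 30 °C.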

human recombinant HDAC6 = biological target: T2, human recombinant HDAC6 (Homo sapiens, UniProt Q9UBN7); assay: HDAC6 enzyme activity inhibition test (HDAC Fluorometric Drug Discovery Kit); type: biochemical; details: for HDAC6 selectivity (fold): HDAC6 over HDAC1; for IC50: human recombinant HDAC6, same protocol as HDAC1
T2 construct: purchased Calbiochem 382180
T2 sequence (Q9UBN7 1-1215): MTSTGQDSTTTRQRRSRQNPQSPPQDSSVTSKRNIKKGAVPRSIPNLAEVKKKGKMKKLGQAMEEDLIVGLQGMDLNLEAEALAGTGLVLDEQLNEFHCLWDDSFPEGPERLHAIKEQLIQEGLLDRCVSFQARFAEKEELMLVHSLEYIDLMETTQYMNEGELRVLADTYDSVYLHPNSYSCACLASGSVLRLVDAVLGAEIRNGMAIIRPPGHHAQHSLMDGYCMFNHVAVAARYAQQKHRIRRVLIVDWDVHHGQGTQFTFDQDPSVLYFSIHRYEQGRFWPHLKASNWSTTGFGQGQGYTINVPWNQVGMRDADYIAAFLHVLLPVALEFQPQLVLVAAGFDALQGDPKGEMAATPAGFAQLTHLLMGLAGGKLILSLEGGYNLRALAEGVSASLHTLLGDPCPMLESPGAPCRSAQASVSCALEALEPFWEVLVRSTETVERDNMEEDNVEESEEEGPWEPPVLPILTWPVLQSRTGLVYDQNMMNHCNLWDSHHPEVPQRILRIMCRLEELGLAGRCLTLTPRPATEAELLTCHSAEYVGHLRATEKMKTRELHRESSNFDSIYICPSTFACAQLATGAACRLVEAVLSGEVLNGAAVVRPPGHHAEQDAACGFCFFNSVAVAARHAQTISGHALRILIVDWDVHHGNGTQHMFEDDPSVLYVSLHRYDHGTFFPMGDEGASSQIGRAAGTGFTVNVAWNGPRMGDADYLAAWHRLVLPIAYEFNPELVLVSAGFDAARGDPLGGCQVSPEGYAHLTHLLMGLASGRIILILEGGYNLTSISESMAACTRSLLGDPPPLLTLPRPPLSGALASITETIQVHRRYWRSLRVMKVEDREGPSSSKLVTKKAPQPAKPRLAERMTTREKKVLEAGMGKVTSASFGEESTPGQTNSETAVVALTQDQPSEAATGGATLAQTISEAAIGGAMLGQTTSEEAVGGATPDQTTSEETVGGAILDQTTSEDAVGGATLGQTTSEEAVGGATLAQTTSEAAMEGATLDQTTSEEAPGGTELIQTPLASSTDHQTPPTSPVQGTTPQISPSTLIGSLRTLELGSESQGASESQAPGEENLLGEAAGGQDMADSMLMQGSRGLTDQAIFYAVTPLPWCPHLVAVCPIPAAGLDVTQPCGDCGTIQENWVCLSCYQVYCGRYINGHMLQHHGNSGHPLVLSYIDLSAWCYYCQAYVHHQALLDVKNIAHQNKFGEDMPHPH
Procedure, shortened: as §1

T1 sequence (Q13547 whole entry): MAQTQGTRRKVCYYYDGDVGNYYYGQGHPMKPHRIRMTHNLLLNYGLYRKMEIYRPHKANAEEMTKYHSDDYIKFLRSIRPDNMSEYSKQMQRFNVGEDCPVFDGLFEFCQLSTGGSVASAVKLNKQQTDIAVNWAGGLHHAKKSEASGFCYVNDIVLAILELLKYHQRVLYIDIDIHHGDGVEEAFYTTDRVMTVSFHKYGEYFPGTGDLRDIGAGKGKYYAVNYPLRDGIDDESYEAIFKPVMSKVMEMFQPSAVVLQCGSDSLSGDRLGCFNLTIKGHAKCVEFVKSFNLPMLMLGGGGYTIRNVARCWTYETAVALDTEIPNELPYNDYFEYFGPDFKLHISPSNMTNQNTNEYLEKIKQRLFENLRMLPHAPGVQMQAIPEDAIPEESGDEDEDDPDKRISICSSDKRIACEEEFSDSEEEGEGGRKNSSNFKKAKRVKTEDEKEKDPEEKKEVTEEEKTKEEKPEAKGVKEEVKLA

Row | Compound | IC50 (human recombinant HDAC1) [nM] | HDAC6 selectivity (fold) (human recombinant HDAC6) | IC50 (human recombinant HDAC6) [nM]
1 | CC(C)N1CCN(Cc2ccc(-c3nn(Cc4ccc(-c5nnc(C(F)F)o5)cn4)c(=O)o3)cc2)CC1 [Compound 83, 3-[[5-[5-(difluoromethyl)-1,3,4-oxadiazol-2-yl]-2-pyridyl]methyl]-5-[4-[(4-isopropylpiperazin-1-yl)methyl]phenyl]-1,3,4-oxadiazol-2-one] | > 50000 | 554 | 90.3
2 | FC(F)c1nnc(-c2ccc(Cn3nc(-c4cccc(CN5CCCC5)c4)oc3=S)nc2)o1 [Compound 86, 3-[[5-[5-(difluoromethyl)-1,3,4-oxadiazol-2-yl]-2-pyridyl]methyl]-5-[3-(pyrrolidin-1-ylmethyl)phenyl]-1,3,4-oxadiazol-2-thione] | > 50000 | 760 | 65.8
3 | FC(F)c1nnc(-c2ccc(Cn3nc(-c4cccc(CN5CCCCC5)c4)oc3=S)nc2)o1 [Compound 87, 3-[[5-[5-(difluoromethyl)-1,3,4-oxadiazol-2-yl]-2-pyridyl]methyl]-5-[3-(1-piperidylmethyl)phenyl]-1,3,4-oxadiazol-2-thione] | > 50000 | 556 | 89.9
4 | CC1CCN(Cc2cccc(-c3nn(Cc4ccc(-c5nnc(C(F)F)o5)cn4)c(=S)o3)c2)CC1 [Compound 88, 3-[[5-[5-(difluoromethyl)-1,3,4-oxadiazol-2-yl]-2-pyridyl]methyl]-5-[3-[(4-methyl-1-piperidyl)methyl]phenyl]-1,3,4-oxadiazol-2-thione] | > 50000 | 449 | 111
5 | FC(F)c1nnc(-c2ccc(Cn3nc(-c4cccc(CN5CC[C@@H](F)C5)c4)oc3=S)nc2)o1 [Compound 89, 3-[[5-[5-(difluoromethyl)-1,3,4-oxadiazol-2-yl]-2-pyridyl]methyl]-5-[3-[[(3R)-3-fluoropyrrolidin-1-yl]methyl]phenyl]-1,3,4-oxadiazol-2-thione] | > 50000 | 1027 | 48.7
6 | FC(F)c1nnc(-c2ccc(Cn3nc(-c4cccc(CN5CC[C@H](F)C5)c4)oc3=S)nc2)o1 [Compound 90, 3-[[5-[5-(difluoromethyl)-1,3,4-oxadiazol-2-yl]-2-pyridyl]methyl]-5-[3-[[(3S)-3-fluoropyrrolidin-1-yl]methyl]phenyl]-1,3,4-oxadiazol-2-thione] | > 50000 | 835 | 59.9
7 | FC(F)c1nnc(-c2ccc(Cn3nc(-c4cccc(CN5CCOCC5)c4)oc3=S)nc2)o1 [Compound 99, 3-[[5-[5-(difluoromethyl)-1,3,4-oxadiazol-2-yl]-2-pyridyl]methyl]-5-[3-(morpholinomethyl)phenyl]-1,3,4-oxadiazol-2-thione] | > 50000 | 511 | 97.8
8 | CCN1CCN(c2cccc(-c3nn(Cc4ccc(-c5nnc(C(F)F)o5)cn4)c(=S)o3)n2)CC1 [Compound 100, 3-[[5-[5-(difluoromethyl)-1,3,4-oxadiazol-2-yl]-2-pyridyl]methyl]-5-[6-(4-ethylpiperazin-1-yl)-2-pyridyl]-1,3,4-oxadiazol-2-thione] | > 50000 | 2049 | 24.4
9 | CC(C)N1CCN(c2cccc(-c3nn(Cc4ccc(-c5nnc(C(F)F)o5)cn4)c(=S)o3)n2)CC1 [Compound 101, 3-[[5-[5-(difluoromethyl)-1,3,4-oxadiazol-2-yl]-2-pyridyl]methyl]-5-[6-(4-isopropylpiperazin-1-yl)-2-pyridyl]-1,3,4-oxadiazol-2-thione] | > 50000 | 2538 | 19.7
10 | FC(F)c1nnc(-c2ccc(Cn3nc(-c4cccc(N5CCN(C6CCCC6)CC5)n4)oc3=S)nc2)o1 [Compound 102, 5-[6-(4-cyclopentylpiperazin-1-yl)-2-pyridyl]-3-[[5-[5-(difluoromethyl)-1,3,4-oxadiazol-2-yl]-2-pyridyl]methyl]-1,3,4-oxadiazol-2-thione] | > 50000 | 1188 | 42.1

Next, values leading:

Row | IC50 (human recombinant HDAC1) [nM] | HDAC6 selectivity (fold) (human recombinant HDAC6) | IC50 (human recombinant HDAC6) [nM] | Compound
11 | > 50000 | 497 | 101 | CN(C)Cc1cccc(-c2nn(Cc3ccc(-c4nnc(C(F)F)o4)cn3)c(=S)o2)c1 [Compound 84, 3-((5-(5-(difluoromethyl)-1,3,4-oxadiazol-2-yl)pyridin-2-yl)methyl)-5-(3-((dimethylamino)methyl)phenyl)-1,3,4-oxadiazol-2(3H)-thione]
12 | > 50000 | 447 | 112 | CNCc1cccc(-c2nn(Cc3ccc(-c4nnc(C(F)F)o4)cn3)c(=S)o2)c1 [Compound 85, 3-[[5-[5-(difluoromethyl)-1,3,4-oxadiazol-2-yl]-2-pyridyl]methyl]-5-[3-(methylaminomethyl)phenyl]-1,3,4-oxadiazol-2-thione]
13 | > 50000 | 1832 | 27.3 | CN(C)Cc1ccc(-c2nn(Cc3ccc(-c4nnc(C(F)F)o4)cn3)c(=S)o2)cc1 [Compound 91, 3-[[5-[5-(difluoromethyl)-1,3,4-oxadiazol-2-yl]-2-pyridyl]methyl]-5-[4-[(dimethylamino)methyl]phenyl]-1,3,4-oxadiazol-2-thione]
14 | > 50000 | 3185 | 15.7 | CNCc1ccc(-c2nn(Cc3ccc(-c4nnc(C(F)F)o4)cn3)c(=S)o2)cc1 [Compound 92, 3-[[5-[5-(difluoromethyl)-1,3,4-oxadiazol-2-yl]-2-pyridyl]methyl]-5-[4-(methylaminomethyl)phenyl]-1,3,4-oxadiazol-2-thione]
15 | > 50000 | 2890 | 17.3 | FC(F)c1nnc(-c2ccc(Cn3nc(-c4ccc(CN5CCCC5)cc4)oc3=S)nc2)o1 [Compound 93, 3-[[5-[5-(difluoromethyl)-1,3,4-oxadiazol-2-yl]-2-pyridyl]methyl]-5-[4-(pyrrolidin-1-ylmethyl)phenyl]-1,3,4-oxadiazol-2-thione]
16 | > 50000 | 1672 | 29.9 | FC(F)c1nnc(-c2ccc(Cn3nc(-c4ccc(CN5CCCCC5)cc4)oc3=S)nc2)o1 [Compound 94, 3-[[5-[5-(difluoromethyl)-1,3,4-oxadiazol-2-yl]-2-pyridyl]methyl]-5-[4-(1-piperidylmethyl)phenyl]-1,3,4-oxadiazol-2-thione]
17 | > 50000 | 574 | 87.1 | FC(F)c1nnc(-c2ccc(Cn3nc(-c4ccc(CN5CCOCC5)cc4)oc3=S)nc2)o1 [Compound 95, 3-[[5-[5-(difluoromethyl)-1,3,4-oxadiazol-2-yl]-2-pyridyl]methyl]-5-[4-(morpholinomethyl)phenyl]-1,3,4-oxadiazol-2-thione]
18 | > 50000 | 1208 | 41.4 | CC1CCN(Cc2ccc(-c3nn(Cc4ccc(-c5nnc(C(F)F)o5)cn4)c(=S)o3)cc2)CC1 [Compound 96, 3-[[5-[5-(difluoromethyl)-1,3,4-oxadiazol-2-yl]-2-pyridyl]methyl]-5-[4-[(4-methyl-1-piperidyl)methyl]phenyl]-1,3,4-oxadiazol-2-thione]
19 | > 50000 | 862 | 58.1 | FC(F)c1nnc(-c2ccc(Cn3nc(-c4ccc(CN5CC[C@@H](F)C5)cc4)oc3=S)nc2)o1 [Compound 97, 3-[[5-[5-(difluoromethyl)-1,3,4-oxadiazol-2-yl]-2-pyridyl]methyl]-5-[4-[[(3R)-3-fluoropyrrolidin-1-yl]methyl]phenyl]-1,3,4-oxadiazol-2-thione]
20 | > 50000 | 552 | 90.6 | FC(F)c1nnc(-c2ccc(Cn3nc(-c4ccc(CN5CC[C@H](F)C5)cc4)oc3=S)nc2)o1 [Compound 98, 3-[[5-[5-(difluoromethyl)-1,3,4-oxadiazol-2-yl]-2-pyridyl]methyl]-5-[4-[[(3S)-3-fluoropyrrolidin-1-yl]methyl]phenyl]-1,3,4-oxadiazol-2-thione]
